Data as given in patent publication US7378446B2, “Compound having anti-HCV activity and process for producing the same” (Chugai Seiyaku Kabushiki Kaisha, priority 2003, dated 2008).

How the values were obtained:
[1] = test system: Firefly luciferase HCV replicon cells (3-1); experiment: Replicon assay (firefly luciferase HCV replicon); type: cell-based; details: Hepatitis C virus, 72 h; Huh7-derived luciferase HCV replicon cells, 3 days culture with compound, Steady-Glo luminescence
Experimental: (§1) A construct was prepared in which a luciferase gene derived from firefly was introduced as a reporter gene in HCV-RNA to assay the number of copies of HCV-RNA. The luciferase gene was introduced in the form of fusing with neomycin-resistance gene directly below the IRES (Internal Ribosome Entry Site) of the HCV gene in accordance with the method of Krieger, et al. (J. Virol. 75:4614). After synthesizing this RNA in vitro, it was introduced into Huh7 cell by electroporation and isolated as G418-resistant clone. Firefly luciferase HCV replicon cells (3-1) were suspended in Dulbecco's MEM (Gibco cat. no. 10569-010) containing 5% fetal bovine serum (Hyclone cat. no. SH30071.03), inoculated into the wells of a 96-well plate at 5000 cells/well and then cultured overnight at 37° C. and 5% CO2. Approximately 20 hours later, the diluted test compound was added at 10 μl per well followed by culturing for another 3 days. Two series of assay plates were prepared, and the assay was carried out using a white plate for one series and a clear plate for the other series. Following completion of culturing, the white plate was used for the Steady-Glo Luciferase Assay System (Promega cat. no. E2520). Namely, after adding 100 μl of reagent per well, mixing by a pipette 3 to 4 times and then allowing to stand for 5 minutes, luminescence was measured with the 1450 MicroBeta TRILUX (Wallac). Values obtained in the absence of cell addition were used as background values and subtracted from all values to calculate the IC50 (50% inhibitory concentration) of the drug based on a value of 0% inhibition for the value in the absence of addition of test compound.

[2] = in vitro; type: cell-based; details: human; replicon cells, 3 days culture with compound, Cell Counting Kit 8, absorbance 450 nm; read-out: Cytotoxicity CC50
Experimental: as §1
The Cell Counting Kit 8 (Dojindo cat. no. CK04) was used to determine the cytotoxicity. Namely, 10 μl of Cell Counting Kit 8 were added to a clear plate and incubated for 30 to 60 minutes at 37° C. Absorbance at a wavelength of 450 nm and a control wavelength of 630 nm was measured with a 96-well plate reader. Values in the absence of cell addition were used as background values and subtracted from all values to calculate the CC50 (50% cell inhibitory concentration) of the drug based on a value of 0% inhibition for the value in the absence of addition of drug.

Row | SMILES | IC50 [1] | CC50 [2]
1 | CC(C)CCCCC(=O)CCCCCC/C=C/[C@H](C(=O)N[C@@H](Cc1ccc(OCCC(C)C)cc1)C(=O)O)[C@](O)(CC(=O)O)C(=O)O [Compound 50] | 4 nM | > 1000 nM
2 | CCCCCCCC(=O)CCCCCC/C=C/[C@H](C(=O)N[C@@H](Cc1ccc(-c2cccnc2)cc1)C(=O)O)[C@@](O)(CC(=O)O)C(=O)O [Compound 27] | 10 nM | > 1000 nM
3 | CC(C)CCOc1ccc(C[C@H](NC(=O)[C@@H](/C=C/CCCCCCC(=O)CCC2CCCCC2)[C@](O)(CC(=O)O)C(=O)O)C(=O)O)cc1 [Compound 52] | 24 nM | > 1000 nM
4 | CCCCCCCC(=O)CCCCCC/C=C/[C@H](C(=O)N[C@@H](Cc1ccc(-c2ccc(C(F)(F)F)cc2)cc1)C(=O)O)[C@@](O)(CC(=O)O)C(=O)O [Compound 60] | 8 nM | > 1000 nM
5 | CCCCCCC(=O)CCCCCC/C=C/[C@H](C(=O)N[C@@H](Cc1ccc(-c2ccccc2)cc1)C(=O)O)[C@@](O)(CC(=O)O)C(=O)O [Compound 102] | 5 nM | > 1000 nM
6 | CCCCCCCC(=O)CCCCCC/C=C/[C@H](C(=O)N[C@@H](Cc1ccc(-c2cnc(OC)nc2)cc1)C(=O)O)[C@@](O)(CC(=O)O)C(=O)O [Compound 81] | 8 nM | > 1000 nM
7 | CCCCCCCC(=O)CCCCCC/C=C/[C@H](C(=O)N[C@@H](Cc1ccc(Oc2ccc(F)cc2)cc1)C(=O)O)[C@@](O)(CC(=O)O)C(=O)O [Compound 25] | 9 nM | > 1000 nM
8 | CCCCCCCC(=O)CCCCCC/C=C/[C@H](C(=O)N[C@@H](Cc1ccc(-c2ccccc2)cc1)C(=O)O)[C@@](O)(CC(=O)O)C(=O)O [Compound 19] | 2 nM | > 5000 nM
9 | CCCCCCCC(=O)CCCCCC/C=C/[C@H](C(=O)N[C@@H](Cc1ccc(OCCN2CCNCC2)cc1)C(=O)O)[C@@](O)(CC(=O)O)C(=O)O [Compound 87] | 38 nM | > 1000 nM
10 | C=CCOc1ccc(CC(NC(=O)[C@@H](/C=C/CCCCCCC(=O)CCCCCCC)[C@@](O)(CC(=O)O)C(=O)O)C(=O)O)cc1 (some centres unmarked) [Compound 42] | 1 nM | > 1000 nM
11 | COCCCCCCC(=O)CCCCCC/C=C/[C@H](C(=O)N[C@@H](Cc1ccc(OCCC(C)C)cc1)C(=O)O)[C@@](O)(CC(=O)O)C(=O)O [Compound 99] | 56 nM | > 1000 nM
12 | CCCCCCCC(=O)CCCCCC/C=C/[C@H](C(=O)N[C@@H](Cc1ccc(Oc2ccc(C)cc2)cc1)C(=O)O)[C@@](O)(CC(=O)O)C(=O)O [Compound 53] | 2 nM | > 1000 nM
13 | CCCCCCCC(=O)CCCCCC/C=C/[C@H](C(=O)N[C@@H](Cc1ccc(-c2cccc(OC)c2)cc1)C(=O)O)[C@@](O)(CC(=O)O)C(=O)O [Compound 62] | 2 nM | > 1000 nM
14 | CCCCCCCC(=O)CCCCCC/C=C/[C@H](C(=O)N[C@@H](Cc1ccc(-c2ccc(S(C)(=O)=O)cc2)cc1)C(=O)O)[C@@](O)(CC(=O)O)C(=O)O [Compound 80] | 71 nM | > 1000 nM
15 | CCCCCCCC(=O)CCCCCC/C=C/[C@H](C(=O)N[C@@H](Cc1ccc(-c2ccc(F)cc2)cc1)C(=O)O)[C@@](O)(CC(=O)O)C(=O)O [Compound 29] | 6 nM | > 1000 nM
16 | C#CCOc1ccc(C[C@H](NC(=O)[C@@H](/C=C/CCCCCCC(=O)CCCCCCC)[C@@](O)(CC(=O)O)C(=O)O)C(=O)O)cc1 [Compound 105] | 3 nM | > 1000 nM
